Entries after “also recorded” stand apart in the source; their conditions may differ.
Tests used:
[1] = Half-life of orally administered Fpn127 in rodents; conditions: in vivo, po
Hbb^th3/+ mice = experiment: NTBI in plasma after blood transfusion (BT) in Hbb^th3/+ mice (Fe-NTA colorimetric assay); assay type: in vivo, mouse; conditions: single oral dose 120 mg/kg 30 min before BT, 3 h post BT (FIG. 13)
Protocol: In order to establish the kinetics of NTBI generation in Hbb th3/+ mice (B6.129P2-Hbb-b1tm1Unc Hbb-b2tm1Unc/J, #002683) following blood transfusion (BT) pilot experiments were performed. The wild-type (We) littermates of Hbbth3/+ were used as blood donors for transfusions. Peripheral blood was collected from terminally anesthetized WT mice via retro-orbital route from 3-5 female mice and seven parts of blood were mixed with one part of 14% citrate-phosphate-dextrose adenine and stored at 4° C. until the transfusion (24 h or 15 days). The donor blood was pre-warmed to 37° C. prior to the transfusion. […]
NTBI was measured in murine plasma samples by a Fe-Nitrilotriacetate (NTA)-based assay, adapted from a protocol published by Gosriwatana I et al. 1999 (Quantification of non-transferrin-bound iron in the presence of unsaturated transferrin. Gosriwatana I, Loreal O. Lu S, Brissot P, Porter J, Hider R C. Quantification of non-transferrin-bound iron in the presence of unsaturated transferrin. Anal Biochem. 1999 Sep. 10; 273(2):212-20. First, a solution of 800 mM Nitrilotriacetate acid (NTA) trisodium (Sigma, 72565) and a solution of 800 mM NTA disodium (Sigma, N0128) were prepared and then mixed together to obtain a solution at pH 7.0. […] After 30 minutes of incubation at room temperature, samples were measured in a plate reader (Biotec) at 537 nm.

## O=C(NCc1ncccc1F)c1coc(CCNCCc2nc3ccccc3[nH]2)n1 [Fpn127]
[1]
  half-life: ~2 h
Hbb^th3/+ mice
  NTBI in plasma after blood transfusion: prevents release; also recorded: prevented the increase of NTBI

Source: US12533348B2, “Ferroportin-inhibitors for the use in the treatment of transfusion-dependent beta-thalassemia (TDT)” (Vifor (International) AG, priority 2019, dated 2026)
